Results: US11980620B2, “Compounds and methods for treatment of Diamond Blackfan anemia” (THE CHILDREN'S MEDICAL CENTER CORPORATION, priority 2017, dated 2024)
Entries after “also recorded” stand apart in the source; their conditions may differ.

Experiments:
DBA CD34-5F cells = experiment: NSG mice transplanted with DBA CD34-5F progenitors, erythroid proportion of human graft; assay type: in vivo
Description: (§1) (FIG. 10A) SMER28 rescues RBC output in rps29^+/− zebrafish embryos. The level of hemoglobin in the yolk sac was visualized 40hpf with benzidine staining. Images are representative of the proportion of embryos indicated (of total counted). (FIG. 10B) Quantitation of SMER28 rescue for a range of 0.1-1 μM, with embryos grouped by high, medium, and low levels of hemoglobin staining. (FIG. 10C) Peripheral blood (PB) RBC counts and hematocrit in mice with irradiation-induced anemia. Mice were treated with the PEG400-based vehicle containing DMSO (VEH) (n=11), 1 mg/kg Dex (sodium-phosphate) (n=13), or 10 mg/kg SMER28 (n=9) for 3 weeks, bled, and assessed. Data are combined from 3 independent experiments. (FIG. 10D) Erythroid cells as proportion of the human graft in mice transplanted with DBA CD34-5F progenitors, and treated as in (FIG. 1c). (FIG. 10E) Levels of human engraftment in NSG mouse bone marrow (BM) transplanted with CB CD34^+ cells. Mice were treated with DMSO plus vehicle (VEH) (n=10), 1 mg/kg Dex (sodium-phosphate) (n=6), or 2 mg/kg SMER28 (n=11) for 4 weeks. (FIG. 10F) The proportion of erythroid, myeloid, and lymphoid (B cells) lineages within the human graft in vehicle- and SMER28-treated mice transplanted with CB CD34^+ cells. Only the effect on the erythroid lineage was significant. Data in FIGS. 10E-10G are pooled from 2 independent experiments. […]

[1] = system: CD34-5F or CB progenitors; experiment: Output of mature RBCs at end of stage III of erythroid culture; assay type: cell-based, human
Description: (§2) (FIG. 12A) Erythroid differentiation of control and DBA CD34-5F cells treated with DMSO vehicle or SMER28 (10 μM) during the initial CD34^+ progenitor phase (day 0-4 of differentiation), or stage I of erythroid culture (day 4-9 of differentiation). Percent of erythroid cells after stage I of differentiation is indicated in top left for each condition, and quantitated in (FIG. 12B). Data are shown as mean f s.e.m. of 4 independent experiments, with 2 control and 4 DBA iPSCs. (FIG. 12C) Same as (FIG. 12A) for CB CD34+ cells transduced with shRPS19 hairpins. GFP^+ RPS19^sh and GFP^− control cells were quantitated separately. […] (FIG. 12D) RBC pellets at the end of stage III initiated with equal numbers of CD34-5F or CB progenitors. SMER28 was added at […]. (FIG. 12E) May-Grunwald-Giemsa stain of erythroid cells from CB CD34^+ at end of stage III. Arrows indicate enucleated RBCs, which are quantitated by flow cytometry. (FIG. 12F) Quantitation of the enucleation efficiency (left) of GLYA^+ cells. Data in FIGS. 12E-12F represents 3 independent experiments. For all panels, *p<0.05, **p<0.01.
(§3) Erythroblasts proliferate rapidly to give rise to terminally differentiated RBCs. […]

[2] = system: erythroid cells from CB CD34+; experiment: Enucleation efficiency of GLYA+ cells at end of stage III; assay type: cell-based, human; settings: treatment during stages I-III; vehicle 2.4%±1.2
Description: as §2, §3

[3] = system: rps29+/- zebrafish embryos; experiment: Hemoglobin (benzidine) staining in rps29 mutant zebrafish embryos; assay type: in vivo
Description: as §1

C=CCNc1ncnc2ccc(Br)cc12 [SMER28, 6-Bromo-N-2-propenyl-4-quinazolinam]
output of GlyA+ RBCs from DBA CD34-5F cells (DBA CD34-5F cells): increased | output of RBCs from erythroblasts ([1]; treatment of CD34+ progenitors only): comparable to vehicle controls | output of iPSC- and CB-derived mature RBCs ([1]; treatment of erythroblasts during stages I-III): enhanced | efficiency of enucleation [2]: 5.6%±1.6 | embryos showing high levels of hemoglobin ([3]; 1 μM, 40 hpf, vehicle-treated controls 20%, p<0.05): Over 50% | hemoglobin staining / RBC output in yolk sac ([3]; treated for 40 hpf, benzidine staining): robust increase; also recorded: rescues
